This note sets out measurements from US20250206708A1, “AN OXAZIRIDINE PLATFORM FOR TARGETING FUNCTIONAL ALLOSTERIC METHIONINE SITES” (Novartis AG, priority 2022, published 2025).

The target in one assay is CDK6 (Homo sapiens, UniProt Q00534). The assay can be described thus: Gel-based ABPP, isoform specificity on CDK6. It counts as binding. The note with it: dose-dependent treatment. As for the experimental part: Activity-based protein profiling (ABPP) was performed as follows. CDK4 was diluted in PBS to 50 nM, then 50 μL was added to each well of a 96-well PCR plate. Ligands were dissolved fresh in DMSO to 5 μM, and 1 μL was added so each well contained a unique ligand at the indicated concentration. Wells were mixed and allowed to incubate 1 h at 23° C. Ligands were then chased with fresh Compound 301 with 1 μL of 5 μM added to each well (100 nM final), wells mixed and allowed to incubate 1 h at 23° C. Excess oxaziridine was quenched with N-acetyl methionine via addition of 1 μL of 10 mM DMSO stock (200 μM final), wells mixed and allowed to incubate 1 h at 23° C. A stock was prepared 1:5 of 12.5 μM DBCO-Cy3 in DMSO: 1.2% SDS/PBS. To each well was added 6 μL of this stock, the wells mixed and allowed to incubate overnight protected from light at 23° C. The next morning 30 μL of 4×Laemmli's buffer containing 10% BME was added to each well. The plate was sealed and brought to 95° C. for 6 min. Samples were loaded and separated on precast 4-20% TGX gels and scanned by ChemiDoc MP for measuring in-gel fluorescence. After that, the total protein level on the gel was assayed by silver staining according to the manufacturer's protocol and scanned by ChemiDoc MP.
CDK6, sequence (Q00534 whole entry, canonical isoform): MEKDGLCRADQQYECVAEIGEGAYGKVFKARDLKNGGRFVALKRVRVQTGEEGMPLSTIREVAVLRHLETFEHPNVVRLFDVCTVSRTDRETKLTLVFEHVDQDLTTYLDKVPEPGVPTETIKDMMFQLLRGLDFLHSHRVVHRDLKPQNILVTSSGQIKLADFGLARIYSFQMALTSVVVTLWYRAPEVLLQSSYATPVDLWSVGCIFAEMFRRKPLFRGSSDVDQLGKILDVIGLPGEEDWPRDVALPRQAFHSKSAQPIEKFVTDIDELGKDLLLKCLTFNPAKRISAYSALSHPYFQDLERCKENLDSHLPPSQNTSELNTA
The isoform specificity was tested with two closely-related congeners, CDK1 and CDK6.

In assay [1] the target is CDK4 (Homo sapiens, UniProt P11802). In words: ADP-Glo luciferase-based in vitro activity assay on purified CDK4. It counts as biochemical. The note with it: Rb (aa 773-928) substrate, read-out: IC50, inhibition of activity of purified CDK4 protein. As for the experimental part: Effects of Compound 148 on in vitro activity of CDK4 were determined via commercially available ADP-Glo assay (Promega; cat no.V6930). Isolated CDK4 was provided by Novartis. Retinoblastoma protein (aa 773-928) was obtained from commercial sources (Millipore Sigma; 12-439). The assay kit protocol was followed as directed, with the addition of a quench step (addition of 1 μL of 25 μM N-Acetyl methionine) after incubation of protein with oxaziridine ligand.
CDK4 (Homo sapiens, UniProt P11802), sequence (P11802 whole entry, the tested form may be a part): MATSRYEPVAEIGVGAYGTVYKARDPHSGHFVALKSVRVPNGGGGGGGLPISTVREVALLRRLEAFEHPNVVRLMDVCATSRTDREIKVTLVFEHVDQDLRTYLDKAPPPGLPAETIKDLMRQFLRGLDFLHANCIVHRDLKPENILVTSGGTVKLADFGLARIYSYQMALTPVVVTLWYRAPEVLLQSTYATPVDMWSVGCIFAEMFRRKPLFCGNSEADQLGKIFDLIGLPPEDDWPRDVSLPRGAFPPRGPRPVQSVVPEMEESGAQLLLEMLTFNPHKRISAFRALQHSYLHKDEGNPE
CDK4 (Homo sapiens, UniProt P11802), sequence (P24385 whole entry partner, the tested form may be a part): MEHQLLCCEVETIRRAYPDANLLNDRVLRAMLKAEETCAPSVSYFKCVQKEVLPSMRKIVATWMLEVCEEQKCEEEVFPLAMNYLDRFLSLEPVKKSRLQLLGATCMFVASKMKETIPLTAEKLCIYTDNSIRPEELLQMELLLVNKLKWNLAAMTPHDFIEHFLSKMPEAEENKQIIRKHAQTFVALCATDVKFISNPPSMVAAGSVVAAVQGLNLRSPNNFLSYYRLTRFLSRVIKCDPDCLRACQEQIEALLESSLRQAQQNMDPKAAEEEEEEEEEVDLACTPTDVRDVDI
(ADP-Glo turns the ADP formed in a reaction into a luminescent signal.)

Assay [2] relates to CDK4. The assay can be described thus: 2D gel electrophoresis western blot of CDK4 T172 phosphorylation in MCF-7. The note with it: MCF-7 cells, 2D SDS-PAGE, spot 3 normalized to spot 1. It is filed as cell-based, human. As for the experimental part:
Serum-synchronized MCF-7 cells were treated with compound according to method outlined. Cells were monitored by eye for cell death and harvested once high-dose cells were round but not detached, about 2 hours. Media was removed and cells washed with HBSS. Trypsin was added to detach cells. Cells were transferred to a falcon tube containing 7 mL of complete DMEM and centrifuged at 1200 rpm for 2 min. Supernatant discarded and pellet gently resuspended in 1 mL PBS and transferred to an Eppendorf tube. Sample was spun once more, after which the pellet was quickly rinsed with ice cold MQ and spun a final time. Pellet was aspirated, flash frozen with LN2, and stored at −80° C.
SCell pellets were solubilized in cold 30 mM Tris buffer pH 8.5 containing 7 M urea, 2 M thiourea and 4% CHAPS with continuous vortexing until unfrozen and then kept agitated for 20 min. After centrifugation at 15,700 g for 10 min at 4° C., proteins were quantified. An equal volume of 2-D-sample buffer (7 M urea, 2 M thiourea, 2% CHAPS, 0.4% 3-10 Pharmalytes, and 0.4% DTT) was added to samples normalized to 150 μg proteins. […] The proteins were detected using Western Lightning Plus ECL (Perkin Elmer) and viewed in Fusion FX gel documentation system using the Solo7S camera (Vilber Lourmat, France).

Broadly, the IC50 is the concentration needed to halve the response being measured.

Molecules are shown by their SMILES.

As for `O=C(N1CC2COCC2C1)N1OC1c1ccccc1` (stereo not drawn) [Compound 148], the “labeling against CDK6 by gel analysis” value on CDK6 is “no dose-dependent labeling”. The IC50 at CDK4 [1] is ~200 nM. Besides, in the assay on CDK4 [2], the “T172 phosphorylation status on CDK4” value is listed as “diminish T172 phosphorylation status on CDK4 in MCF-7 cells in a dose-dependent manner”.
